# In ChEMBL document CHEMBL2074488, “Kinetic and selectivity differences between rodent, rabbit, and human organic cation transporters (OCT1)” (J Pharmacol Exp Ther, 2000):
# Assays:
# [1] = target: T1, Solute carrier family 22 member 1 (Homo sapiens, UniProt O15245); assay: (§1) TP_TRANSPORTER: inhibition of MPP+ uptake in Xenopus laevis oocytes; format: functional, cell-based, Oocyte
# T1 sequence (O15245 whole entry): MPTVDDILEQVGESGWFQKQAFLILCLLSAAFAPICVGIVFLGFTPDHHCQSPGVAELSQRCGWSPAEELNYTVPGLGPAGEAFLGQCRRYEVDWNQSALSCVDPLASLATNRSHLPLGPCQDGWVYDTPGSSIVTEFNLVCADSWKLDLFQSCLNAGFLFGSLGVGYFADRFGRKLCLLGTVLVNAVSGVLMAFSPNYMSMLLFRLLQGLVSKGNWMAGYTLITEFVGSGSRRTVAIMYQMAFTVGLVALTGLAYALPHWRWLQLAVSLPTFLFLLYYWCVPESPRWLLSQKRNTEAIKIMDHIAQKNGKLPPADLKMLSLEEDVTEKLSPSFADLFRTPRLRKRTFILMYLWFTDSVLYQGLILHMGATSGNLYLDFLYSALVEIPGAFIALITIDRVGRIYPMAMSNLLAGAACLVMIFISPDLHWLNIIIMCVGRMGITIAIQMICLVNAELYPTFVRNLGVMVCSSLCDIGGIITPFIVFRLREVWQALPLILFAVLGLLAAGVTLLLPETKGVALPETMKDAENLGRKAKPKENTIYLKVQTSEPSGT
# [2] = target: T2, Solute carrier family 22 member 1 (Mus musculus, UniProt O08966); assay: as §1; format: functional, cell-based, Oocyte
# T2 sequence (O08966 whole entry): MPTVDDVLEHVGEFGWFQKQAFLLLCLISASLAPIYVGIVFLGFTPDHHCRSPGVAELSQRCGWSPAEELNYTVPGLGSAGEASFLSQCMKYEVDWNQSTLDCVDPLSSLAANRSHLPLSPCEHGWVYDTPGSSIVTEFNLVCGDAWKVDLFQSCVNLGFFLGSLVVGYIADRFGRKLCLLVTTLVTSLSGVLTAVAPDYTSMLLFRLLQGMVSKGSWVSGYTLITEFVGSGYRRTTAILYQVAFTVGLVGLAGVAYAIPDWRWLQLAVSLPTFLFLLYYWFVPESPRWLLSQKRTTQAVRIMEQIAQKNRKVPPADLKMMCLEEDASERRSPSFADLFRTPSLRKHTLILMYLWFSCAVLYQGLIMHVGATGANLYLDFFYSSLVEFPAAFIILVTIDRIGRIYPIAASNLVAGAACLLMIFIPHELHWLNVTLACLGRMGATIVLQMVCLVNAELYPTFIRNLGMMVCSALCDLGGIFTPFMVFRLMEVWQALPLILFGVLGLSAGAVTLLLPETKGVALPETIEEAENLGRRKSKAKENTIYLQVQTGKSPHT
# [3] = target: T3, Solute carrier family 22 member 1 (Rattus norvegicus, UniProt Q63089); assay: (§2) TP_TRANSPORTER: trans-stimulation of MPP+ uptake (MPP+: 1 uM, TPeA: 200 uM) in Xenopus laevis oocytes; format: functional, cell-based; conditions: oocyte
# T3 sequence (Q63089 whole entry): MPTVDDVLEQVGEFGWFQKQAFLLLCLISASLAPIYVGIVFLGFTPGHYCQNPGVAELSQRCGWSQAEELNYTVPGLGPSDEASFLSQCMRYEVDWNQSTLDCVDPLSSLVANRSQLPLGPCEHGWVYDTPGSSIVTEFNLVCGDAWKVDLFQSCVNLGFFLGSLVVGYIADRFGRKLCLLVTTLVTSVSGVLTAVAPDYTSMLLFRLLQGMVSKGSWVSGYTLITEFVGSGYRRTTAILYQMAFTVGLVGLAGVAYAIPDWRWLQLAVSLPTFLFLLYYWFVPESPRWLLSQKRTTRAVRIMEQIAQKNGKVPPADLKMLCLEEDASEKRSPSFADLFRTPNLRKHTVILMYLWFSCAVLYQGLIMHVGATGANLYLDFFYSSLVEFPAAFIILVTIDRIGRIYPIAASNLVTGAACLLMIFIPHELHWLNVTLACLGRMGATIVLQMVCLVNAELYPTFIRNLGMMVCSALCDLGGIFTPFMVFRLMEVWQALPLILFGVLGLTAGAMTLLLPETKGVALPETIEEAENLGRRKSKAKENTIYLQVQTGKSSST
# [4] = target: T1, Solute carrier family 22 member 1; assay: as §2; format: functional, cell-based; conditions: oocyte
# [5] = target: T2, Solute carrier family 22 member 1; assay: as §2; format: functional, cell-based; conditions: oocyte
# [6] = target: T3, Solute carrier family 22 member 1; assay: as §1; format: functional, cell-based, Oocyte
Activity [4],SMILES,Ki [1] [µM],Ki [2] [µM],Activity [3],Activity [5],Ki [6] [µM]
–,C[N+](C)(C)C [TETRAMETHYLAMMONIUM],12400,2040,–,–,–
is not an inhibitor [-],CCCCC[N+](CCCCC)(CCCCC)CCCCC [TETRAPENTYLAMMONIUM],–,–,inhibitor [trans-inhibited: (at a rough estimate) 80 % of control],inhibitor [trans-inhibited: (at a rough estimate) 30 % of control],–
–,CCCC[N+](CCCC)(CCCC)CCCC [TETRABUTHYLAMMONIUM],29.6,7.3,–,–,17
–,CCC[N+](CCC)(CCC)CCC [TETRAPROPYLAMMONIUM],102,19.8,–,–,21
–,CC[N+](CC)(CC)CC [TETRYLAMMONIUM],158,128,–,–,100
